From the supplement of paper PMC7394473

Assays:
Details in all cases: 72 h
U2OS [1] = assay: fractional viability (live cells / total cells); higher = less cell death
Method: (§1)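 U2OS::Nuc-mKate2 cells seeded in 96-well plates and treated with eight- to ten-point half-log or log dilutions of drug in the presence of 50 nM SYTOX Green. Live (mKate2+) and dead (SYTOX+) cells were counted by IncuCyte STACK live-cell microscopy at 72 h; biological triplicates. GR is the normalised growth-rate inhibition value (Hafner 2016; 1 = untreated growth, <0 = population shrinking). FV is live/(live+dead) cells, not normalised.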

U2OS [2] = assay: FV IC50 (concentration giving fractional viability 0.5); higher = less potent killing
Method: (§2)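 U2OS cells treated with full dose titrations of drug; live and dead cells counted by STACK microscopy (mKate2 nuclei, SYTOX Green) at 72 h, biological triplicates. GR and FV dose responses were fitted with 4-parameter logistic models (GR lower bound -1). GRADE (0-100) is the rescaled angle of a linear fit of FV versus GR at doses with GR >= 0, giving the percentage of the response due to cell death.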

U2OS [3] = assay: drug GRADE (percent of response due to cell death) (% (0-100)); higher = more death-driven response
Method: as §2

U2OS [4] = assay: GRmin (fitted minimal GR value at highest effect) (GR value (dimensionless)); higher = less efficacious
Method: as §2

U2OS [5] = assay: normalized growth rate inhibition value (GR) relative to untreated cells (GR value (dimensionless, 1 = untreated growth)); higher = less growth inhibition
Method: as §1

U2OS [6] = assay: GR50 (concentration giving GR = 0.5)
Method: as §2

Row | Compound | fractional viability (U2OS [1]; 0.00316 µM) | fractional viability (U2OS [1]; 0.01 µM) | fractional viability (U2OS [1]; 0.0316 µM) | fractional viability (U2OS [1]; 0.1 µM) | fractional viability (U2OS [1]; 0.316 µM) | fractional viability (U2OS [1]; 1 µM) | fractional viability (U2OS [1]; 3.16 µM) | fractional viability (U2OS [1]; 10 µM) | fractional viability (U2OS [1]; 31.6 µM) | FV IC50 (U2OS [2]) [µM] | drug GRADE (U2OS [3]) | GRmin (U2OS [4]) | normalized growth rate inhibition value (U2OS [5]; 0.00316 µM) | normalized growth rate inhibition value (U2OS [5]; 0.01 µM) | normalized growth rate inhibition value (U2OS [5]; 0.0316 µM) | normalized growth rate inhibition value (U2OS [5]; 0.1 µM) | normalized growth rate inhibition value (U2OS [5]; 0.316 µM) | normalized growth rate inhibition value (U2OS [5]; 1 µM) | normalized growth rate inhibition value (U2OS [5]; 3.16 µM) | normalized growth rate inhibition value (U2OS [5]; 10 µM) | normalized growth rate inhibition value (U2OS [5]; 31.6 µM) | GR50 (U2OS [6]) [µM] | fractional viability (U2OS [1]; 0.00100578 µM) | fractional viability (U2OS [1]; 0.00317827 µM) | fractional viability (U2OS [1]; 0.0100433 µM) | fractional viability (U2OS [1]; 0.0317369 µM) | fractional viability (U2OS [1]; 0.100289 µM) | fractional viability (U2OS [1]; 0.316912 µM) | fractional viability (U2OS [1]; 1.00144 µM) | fractional viability (U2OS [1]; 3.16456 µM) | normalized growth rate inhibition value (U2OS [5]; 0.00100578 µM) | normalized growth rate inhibition value (U2OS [5]; 0.00317827 µM) | normalized growth rate inhibition value (U2OS [5]; 0.0100433 µM) | normalized growth rate inhibition value (U2OS [5]; 0.0317369 µM) | normalized growth rate inhibition value (U2OS [5]; 0.100289 µM) | normalized growth rate inhibition value (U2OS [5]; 0.316912 µM) | normalized growth rate inhibition value (U2OS [5]; 1.00144 µM) | normalized growth rate inhibition value (U2OS [5]; 3.16456 µM)
1 | Cc1ccc(C(=O)N(CCCN)[C@@H](c2oc3cc(Cl)ccc3c(=O)c2Cc2ccccc2)C(C)C)cc1 | 0.855 | 0.758 | 0.808 | 0.764 | 0.827 | 0.782 | 0.436 | 0.0037 | 0.000513 | 2.85 | 53.2 | -0.9 | 0.205 | -0.165 | 0.0886 | -0.222 | 0.0837 | -0.166 | -0.182 | -0.945 | -0.883 |  |  |  |  |  |  |  |  |  |  |  |  |  |  |  |  | 
2 | N.N.[Cl][Pt][Cl] [Cisplatin] |  |  |  |  |  |  |  | 0.884 |  |  | 11.1 | 0.0264 |  |  |  |  |  |  |  | 0.0495 |  | 1.8 | 0.99 | 0.989 | 0.988 | 0.99 | 0.988 | 0.986 | 0.984 | 0.957 | 0.959 | 0.955 | 1.02 | 0.95 | 0.901 | 0.972 | 0.755 | 0.248
3 | Cc1c(N)nc([C@H](CC(N)=O)NC[C@H](N)C(N)=O)nc1C(=O)N[C@H](C(=O)N[C@H](C)[C@@H](O)[C@H](C)C(=O)N[C@H](C(=O)NCCc1nc(-c2nc(C(=O)NCCC[S+](C)C)cs2)cs1)[C@@H](C)O)[C@@H](OC1OC(CO)C(O)C(O)C1OC1OC(CO)C(O)C(OC(N)=O)C1O)c1cnc[nH]1 (stereo partly drawn) [Bleomycin] |  |  |  |  |  |  |  | 0.947 |  |  | 6.06 | 0.0459 |  |  |  |  |  |  |  | 0.0892 |  | 1.15 | 0.989 | 0.989 | 0.99 | 0.991 | 0.987 | 0.982 | 0.972 | 0.968 | 1.12 | 0.986 | 1.11 | 1.03 | 0.88 | 0.888 | 0.552 | 0.195
4 | CN1CCN(CCOc2cc(OC3CCOCC3)c3c(Nc4c(Cl)ccc5c4OCO5)ncnc3c2)CC1 [Saracatinib] |  |  |  |  |  |  |  | 0.833 |  |  | 28.7 | -0.134 |  |  |  |  |  |  |  | 0.205 |  | 2.59 | 0.989 | 0.989 | 0.987 | 0.986 | 0.98 | 0.965 | 0.929 | 0.915 | 1.02 | 1.04 | 1 | 0.977 | 0.978 | 0.823 | 0.608 | 0.528
5 | CN(C)CC[C@H](CSc1ccccc1)Nc1ccc(S(=O)(=O)NC(=O)c2ccc(N3CCN(Cc4ccccc4-c4ccc(Cl)cc4)CC3)cc2)cc1[N+](=O)[O-] [ABT-737] |  |  |  |  |  |  |  | 0.407 |  | 6.86 | 65.6 |  |  |  |  |  |  |  |  | -0.162 |  | 2.13 | 0.986 | 0.984 | 0.983 | 0.982 | 0.954 | 0.913 | 0.82 | 0.684 | 0.92 | 1.02 | 1.02 | 0.95 | 0.94 | 0.817 | 0.744 | 0.358
6 | Cc1cn(-c2cc(NC(=O)c3ccc(C)c(Nc4nccc(-c5cccnc5)n4)c3)cc(C(F)(F)F)c2)cn1 [Nilotinib] |  | 0.984 | 0.986 | 0.98 | 0.98 | 0.972 | 0.92 | 0.53 | 0.00617 | 10.3 | 27.4 |  |  | 1.07 | 1.11 | 0.977 | 0.928 | 0.955 | 0.585 | -0.184 | -0.875 | 3.89 |  |  |  |  |  |  |  |  |  |  |  |  |  |  |  | 
7 | CC[C@@H]1C(=O)N(C)c2cnc(Nc3ccc(C(=O)NC4CCN(C)CC4)cc3OC)nc2N1C1CCCC1 [BI2536] | 0.517 | 0.45 | 0.485 | 0.413 | 0.388 | 0.323 | 0.168 | 0.0141 | 0.00423 | 0.0275 | 20.9 |  | 0.0188 | -0.371 | -0.116 | -0.354 | -0.184 | -0.415 | -0.378 | -0.876 | -0.822 |  |  |  |  |  |  |  |  |  |  |  |  |  |  |  |  | 
8 | CCC(=O)N1CCN(c2ccc(-n3c(=O)ccc4cnc5ccc(-c6cnc7ccccc7c6)cc5c43)cc2C(F)(F)F)CC1 [Torin 1] |  | 0.977 | 0.976 | 0.966 | 0.954 | 0.937 | 0.917 | 0.895 | 0.792 |  | 21.4 | 0.106 |  | 1.02 | 0.896 | 0.749 | 0.525 | 0.404 | 0.275 | 0.147 | 0.114 | 0.473 |  |  |  |  |  |  |  |  |  |  |  |  |  |  |  | 
